Laboratory results taken from ChEMBL document CHEMBL5505980, “Pyrazolamide derivatives inhibit α-Synuclein aggregation, disaggregate preformed fibers, and reduce inclusion formation in neuron cells” (Eur J Med Chem, 2024).

Tests used:
[1] = Cytotoxicity against human H4 cells assessed as cell viability at 30 uM incubated for 24 hrs by CCK-8 assay relative to control; type: toxicity, cell-based; conditions: read-out: Activity
[2] = Apparent permeability across basolateral side to apical in MDCKII-MDR1 cells at 10 uM by LC-MS/MS analysis; type: ADME, cell-based, Canis lupus familiaris; conditions: dog, MDCK-MDR1
[3] = Apparent permeability across apical to basolateral side in MDCKII-MDR1 cells at 10 uM by LC-MS/MS analysis; type: ADME, cell-based, Canis lupus familiaris; conditions: dog, MDCK-MDR1
H4 [4] = assay: Cytotoxicity against human H4 cells assessed as cell viability at 1 to 1000 uM incubated for 24 hrs by CCK-8 assay; type: toxicity, cell-based; conditions: h4, 24 h, dose 1-1000 µM
H4 [5] = assay: Cytotoxicity against human H4 cells assessed as cell viability at 300 uM incubated for 24 hrs by CCK-8 assay relative to control; type: toxicity, cell-based; conditions: h4, 24 h
Alpha-synuclein = Alpha-synuclein (Homo sapiens, UniProt P37840); assay: Inhibition of alpha-synuclein (unknown origin) aggregation inhibition ratio by measuring relative fluorescence intensity measured after 3 days by ThT F1 based assay relative to control

Row | Papp B→A at 10 µM [2] [×10⁻⁶ cm/s] | Papp A→B at 10 µM [3] [×10⁻⁶ cm/s] | SMILES | viability at 24 h, 30 µM [1] [%] | Activity (H4 [4]) | Activity (H4 [5]) | IC50 (Alpha-synuclein) [nM]
1 | 1.86 | 4.2 | O=C(Nc1ccc(O)c(O)c1)c1cc(-c2ccc(C(F)(F)F)cc2)n[nH]1 | 95 | Non-Toxic | – | –
2 | 19.3 | 49.7 | O=C(Nc1cc(O)ccc1O)c1cc(-c2ccc(C(F)(F)F)cc2)n[nH]1 | 95 | Non-Toxic | – | –

The next lines start with the molecule.

Row | SMILES | Papp B→A at 10 µM [2] [×10⁻⁶ cm/s] | Papp A→B at 10 µM [3] [×10⁻⁶ cm/s] | viability at 24 h, 30 µM [1] [%] | Activity (H4 [4]) | Activity (H4 [5]) | IC50 (Alpha-synuclein) [nM]
3 | Cc1ccc(-c2cc(C(=O)Nc3cc(O)ccc3O)[nH]n2)cc1 | 6.65 | 2.26 | 74 | Non-Toxic | – | –
4 | O=C(Nc1cc(O)ccc1O)c1cc(-c2ccc(Br)cc2)n[nH]1 | 12 | 29.6 | 95 | Non-Toxic | Non-Toxic | –
5 | O=C(O[C@@H]1Cc2c(O)cc(O)cc2O[C@@H]1c1cc(O)c(O)c(O)c1)c1cc(O)c(O)c(O)c1 [EPIGALOCATECHIN GALLATE] | – | – | – | Non-Toxic | – | 2580
